Results taken from patent publication US20150087619A1, “METHOD OF MITIGATING VIRUS ASSOCIATED END-ORGAN DAMAGE” (CHIMERIX, INC., priority 2012, published 2015).
“Also recorded” adds a separate entry of the source.

What was measured:
[1] = system: CMV; assay: In vitro antiviral activity in cell culture; type: cell-based; details: Human betaherpesvirus 5
[2] = Safety in clinical trials; type: in vivo, human; details: extensive clinical trials
[3] = system: HSV-1; assay: In vitro antiviral activity in cell culture; type: cell-based; details: Human alphaherpesvirus 1; HSV-1, cell culture
[4] = system: HHV-6(B); assay: In vitro antiviral activity in cell culture; type: cell-based
[5] = system: VZV-BAC-Luc strain; type: in vivo, mouse
[6] = system: AdV; assay: In vitro antiviral activity in cell culture; type: cell-based
[7] = clinical; details: male, human, plasma, 40 mg
[8] = system: JCV; assay: HDP-CDV given to patients with viral infections, virology data; details: patient, JCV associated PML; 2 mg/kg BIW; initial 398 (CSF) and 557 (urine)
[9] = system: HSV; assay: as above; details: patient 2 mo, 4.63 kg, neonatal HSV encephalitis; 4 mg/kg BIW; to below the limit of detection
[10] = system: EBV; assay: as above; details: 4 mg/kg BIW
[11] = system: BKV; assay: Study HDP-CDV-201: BK viruria and viremia in post-HCT subjects; type: in vivo, human
Method: A HDP-CDV-201, a 9-11 week randomized, placebo-controlled, double-blind, dose-escalation clinical study (40 mg weekly [QW], 100 mg QW, 200 mg QW, 200 mg twice-weekly [BIW], and 100 mg BIW) of HDP-CDV for the prevention of BKV infection post-HCT was performed. Treatment was initiated at the time of engraftment and continued until Week 13 post-HCT.
A multicenter, randomized, double-blind, placebo-controlled, dose-escalation study of safety, tolerability, and ability of HDP-CDV to prevent or control AdV, BKV, and EBV infection and associated disorders was conducted. During enrollment of patients in the study, urine samples of candidate patients were routinely screened for BKV. Plasma was collected from patients who tested positive for BKV viruria in urine, and AdV, EBV and BKV level in the plasma was evaluated.
Subjects were tabulated according to treatment group (pooled HDP-CDV versus placebo) and BKV status (viruria positive or negative any time during treatment). Pairwise comparisons were performed using a Fisher's exact test. Data were pooled for HDP-CDV versus placebo groups due to the limited sample size. […] Data from the largest study cohort (HDP-CDV 100 mg BIW) are presented separately in some of the analyses as this dose as been selected for further development of HDP-CDV in Phase 3 trials.

[12] = system: ADV; assay: HDP-CDV given to patients with viral infections, virology data
[13] = system: BKV; assay: as above; details: patient
[14] = system: VZV; assay: Virus spread in VZV-infected cultures; type: cell-based; details: 1 day of 20 μg/mL in the medium, given on Day −1, 0, 2, or 3
[15] = patient 21 mo, 10 kg, 2 mg/kg BIW
[16] = patient, 67 kg, 2 mg/kg BIW, 4 mg/kg BIW
[17] = patient, 70 kg, 2 mg/kg every three days
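For Cmax in this document: plasma levels quantified by validated LC-MS/MS, LLOQ 0.1 ng/mL for HDP-CDV and 0.5 ng/mL for CDV, crossover design with 14-day washout between single doses.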

With `CCCCCCCCCCCCCCCCOCCCOP(=O)(O)COC(CO)Cn1ccc(N)nc1=O` (centres unmarked) [HDP-CDV] the EC50 [1] was 0.001 µM, the myelosuppression or nephrotoxicity [2] was “has not been associated with either myelosuppression or nephrotoxicity” and the EC50 [3] was 0.06 µM. The EC50 [4] was 0.007 µM, the “viral load (qPCR)” value ([5]; 1.25, 2.5, and 5.0 mg/kg, 8 doses once daily) was “dose dependent” and the efficacy in vivo ([5]; SCID-Hu mouse model of VZV replication) was “highly effective”. The EC50 [6] was 0.02 µM, the AUC(0-inf) ([7]; oral) was 476 ng·h/mL and the AUC(0-t) ([7]; oral) was 457 ng·h/mL. For the same molecule, the Cmax ([7]; oral) was 70.5 ng/mL, the AUC(0-inf) ([7]; po) was 574 ng·h/mL and the AUC(0-t) ([7]; po) was 549 ng·h/mL. The Cmax ([7]; po) was 77.7 ng/mL, the Vd/F ([7]; po) was 831 L and the half-life ([7]; po) was 8.06 h. For the same molecule, the “JCV viral load in the CSF and urine during treatment” value [8] was “viral load became undetectable (<300 copies/mL”, the “HSV in the CSF decrease” value [9] was > 1.8 log10 copies/mL to below the limit of and the “decrease in EBV levels in blood” value ([10]; patient 6 months, 6 kg, EBV associated PTLD, four days after starting) was “There was approximately a 5-fold decrease”. For the same molecule, the “blood EBV viral load after one month of therapy” value ([10]; patient 22 months, 13.8 kg, from >50,000,000 copies/mL) was “copies/mL to 100,000 copies/mL over one”, the “replication of EBV as measured by plasma PCR” value ([10]; patient, 27 kg, EBV-associated PTLD) was “There is no evidence of on-going” and the antiviral effect ([11]; 40 mg QW dose) was “has not been shown to have antiviral activity; also recorded: no antiviral effect”. For the same molecule, the “BKV viral load and risk or incidence of end organ damage” value ([11]; BKU+ patients, FIG. 3) was “effective in reducing BKV viral load and the risk or incidence of end organ damage”, the “>10,000 confirmed, new onset (viremia)” value ([11]; Cohort 4A 100 mg BIW) was 0 and the “Viruria >1.0E+10 but only at posttreatment week” value ([11]; Cohort 4A 100 mg BIW (1/22)) was “(4.5%)”. For the same molecule, the “Viremia sustained, but no viremia at baseline” value ([11]; Cohort 4A 100 mg BIW (3/22)) was “(13.6%)”, the “Viremia >1000 copies/mL confirmed” value ([11]; Cohort 4A 100 mg BIW (4/22)) was “(18.2%)” and the “Viremia sustained (at least 2 consecutive values positive)” value ([11]; Cohort 4A 100 mg BIW (5/22)) was “(22.7%)”. For the same molecule, the “Viremia at any time during treatment” value ([11]; Cohort 4A 100 mg BIW (6/22)) was “(27.3%)”, the “Viruria >1.0E+10 at any time during treatment” value ([11]; Cohort 4A 100 mg BIW, BKV positive urine at baseline (4/22)) was “(18.2%)” and the BK viremia ([11]; Cohort 4a (100 mg BIW), 5/22) was 23%. For the same molecule, the “Viruria >1.0E+10 but only at posttreatment week” value ([11]; Pooled HDP-CDV cohorts (4/77)) was “(5.2%)”, the “>10,000 confirmed, new onset (viremia)” value ([11]; Pooled HDP-CDV cohorts (5/77)) was “(6.5%)” and the “Viremia sustained, but no viremia at baseline” value ([11]; Pooled HDP-CDV cohorts (23/77)) was “(29.9%)”. For the same molecule, the “Viremia >1000 copies/mL confirmed” value ([11]; Pooled HDP-CDV cohorts (31/77)) was “(26%)”, the “Viremia sustained (at least 2 consecutive values positive)” value ([11]; Pooled HDP-CDV cohorts (32/77)) was “(41.6%)” and the “Viremia at any time during treatment” value ([11]; Pooled HDP-CDV cohorts (40/77)) was “(47%)”. The “Viruria >1.0E+10 at any time during treatment” value ([11]; Pooled HDP-CDV cohorts, BKV positive urine at baseline (26/77)) was “(33.8%)”, the “subjects who developed viremia >10,000 copies/mL” value ([11]; cohort 1 (40 mg QW)) was 1 and the BK viremia ([11]; cohort 1 (40 mg QW), 5/8) was 62%. For the same molecule, the “subjects who developed viremia >10,000 copies/mL” value ([11]; cohort 2 (100 mg QW)) was 1, the “subjects who developed viremia >10,000 copies/mL” value ([11]; cohort 3 (200 mg QW)) was 3 and the “subjects who developed viremia >10,000 copies/mL” value ([11]; cohort 4 (200 mg BIW)) was 3. The “subjects who developed viremia >10,000 copies/mL” value ([11]; cohort 4a (100 mg BIW)) was 0, the “subjects with high levels of BK viruria” value ([11]; negative for BK viruria at baseline, Cohort 1 (40 mg QW)) was 0 subject and the “subjects with high levels of BK viruria” value ([11]; negative for BK viruria at baseline, Cohort 2 (100 mg QW)) was 1 subject. The “subjects with high levels of BK viruria” value ([11]; negative for BK viruria at baseline, Cohort 3 (200 mg QW)) was 2 subject, the “subjects with high levels of BK viruria” value ([11]; negative for BK viruria at baseline, Cohort 4 (200 mg BIW)) was 0 subject and the “subjects with high levels of BK viruria” value ([11]; negative for BK viruria at baseline, Cohort 4a (100 mg BIW)) was 0 subject. The subjects with viremia ([11]; negative for BK viruria at baseline, pooled HDP-CDV) was “one”, the “viral load (maximum BKV viruria)” value ([11]; patients (67%) who did not develop end organ disease, FIG. 3) was 2.0×10^8 and the “viral load (maximum BKV viruria)” value ([11]; patients who developed end organ disease after treatment (33%), FIG. 3) was 3.2×10^8. For the same molecule, the “viral load compared to patients who received placebo” value ([11]; patients who developed end organ disease after treatment, FIG. 3) was “significantly lower viral load”, the “sustained BK viruria (at least 4 weeks with BK positive urine measurements)” value ([11]; subjects negative for BK viruria at baseline (9/73), placebo 21%) was 12% and the “confirmed new onset BK viruria during treatment” value ([11]; subjects negative for BK viruria at baseline (10/73), placebo 25%) was 14%. The “measurable BK viruria on at least one occasion” value ([11]; subjects negative for BK viruria at baseline (16/73), placebo 29%) was 22%, the “ADV in stool on therapy” value ([12]; patient 9 months, 6.58 kg, disseminated ADV, 3 mg/kg BIW) was “decreased by a similar amount” and the “stool ADV decline” value ([12]; patient 16 mo, 10.4 kg, 4 mg/kg BIW, 3 weeks) was “ADV declined approximately 1 log10 over”. The “Plasma ADV after 3 weeks of therapy” value ([12]; patient 16 mo, 10.4 kg, 4 mg/kg BIW, from 809 c/ml) was “declined from 809 c/ml to undetectable”, the “plasma ADV viremia after discontinuation (rebound)” value [12, 15] was “CDV when it rebounded to 100 copies/ml” and the “response in stool viral load” value [12, 15] was “load (<10-fold)”. The “plasma ADV viremia on treatment” value ([12]; patient 21 mo, 10 kg, 2 mg/kg BIW, baseline 100 copies/mL) was “became undetectable and stayed”, the “decrease in plasma ADV” value ([12]; patient, 14.1 kg, 4 mg/kg BIW) was “ADV2. A ~2 log10 decrease in plasma” and the “ADV in blood 4 days after one dose” value ([12]; patient, 19.1 kg, disseminated ADV, 60 mg BIW, from 51,000 c/mL) was 100 c/mL in 4 days after one dose. The “Adenovirus decline in plasma” value ([12]; patient, 65 kg, 2 mg/kg BIW, to the limit of detection) was “ADV 5 (plasma). Adenovirus declined 2.6 log10”, the “ADV viruria initial decline” value [12, 16] was “respond well initially with a 2.4 log10” and the “ADV viruria rebound, distance from baseline” value [12, 16] was “decline only to rebound to within 0.7 log10”. The “ADV plasma viremia decline” value ([12]; patient, 67 kg, 2 mg/kg BIW, 4 mg/kg BIW, from 5.1 log10 to the limit of detection) was “declined 3.1 logs from 5.1 log10 to the limit”, the “ADV viremia approximately two weeks after D/C” value [12, 17] was “HDP-CDV, ADV viremia rebounded” and the “Colon biopsy for ADV after therapy” value [12, 17] was “negative”. For the same molecule, the ADV viremia decrease ([12]; patient, 70 kg, 2 mg/kg every three days, after 3 weeks) was greater than 3 log10, the “ADV viremia after 3 weeks” value ([12]; patient, 70 kg, 2 mg/kg every three days, from 430,000 copies/mL) was “copies/mL to undetectable after 3 weeks” and the stool viral load ([12]; patient, 81 kg, ADV pneumonia, 2 mg/kg BIW) was “modest decline in stool viral load”. The “Plasma ADV decline” value ([12]; patient, 81 kg, ADV pneumonia, 2 mg/kg BIW, 10 days/4 doses) was “ADV 12. Plasma ADV declined 2.4 log10”, the ADV viremia decrease ([12]; patient, 108 kg, 3 mg/kg first dose, 2 mg/kg BIW thereafter, after approximately 2-3 weeks) was roughly 2 log10 and the “ADV viremia after first two weeks” value ([12]; patient, 4 mg/kg BIW, 3 doses, from 1.5 million) was “ADV viremia from 1.5 million to 98,000 c/ml”. For the same molecule, the “decrease in ADV viremia” value ([12]; patient, 4 mg/kg BIW, first two weeks, 3 doses) was “This patient had a 1.2 log10 decrease in”, the “response of BKV in urine” value ([13]; 57.9 kg, 2 mg/kg BIW) was “CMV viremia but no sustained response of” and the “BK viruria during administration” value ([13]; 69 kg, BKV hemorrhagic cystitis, 2 mg/kg, 1 mg/kg second dose, then 2 mg/kg BIW) was “ganciclovir. BK viruria decreased during”. The BKV in urine ([13]; 108 kg, 3 mg/kg first dose, 2 mg/kg BIW thereafter, by a similar amount (almost 2 log10)) was “rose” and the “reduction of virus spread” value [14] was 2-3 Log10.
